This note sets out measurements from ChEMBL document CHEMBL1201862, “PubChem BioAssay data set” (2004).

Calls of active or inactive are those of the source.

The target in assay [1] is T1, Calpain-2 catalytic subunit (Sus scrofa, UniProt P43367).
T1 sequence (P43367 whole entry): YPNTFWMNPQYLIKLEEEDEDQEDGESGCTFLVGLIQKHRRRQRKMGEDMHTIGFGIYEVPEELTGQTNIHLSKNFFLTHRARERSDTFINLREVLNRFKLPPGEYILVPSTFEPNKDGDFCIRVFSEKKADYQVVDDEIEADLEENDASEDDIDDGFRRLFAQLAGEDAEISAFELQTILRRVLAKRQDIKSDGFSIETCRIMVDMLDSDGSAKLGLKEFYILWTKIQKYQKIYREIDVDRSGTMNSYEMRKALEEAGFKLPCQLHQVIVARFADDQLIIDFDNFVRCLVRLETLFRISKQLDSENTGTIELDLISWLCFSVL
As to the kind of experiment: pig calpain II inhibitor potency, dose response, biochemical, fluorogenic peptide substrate (AID 1420). Format: functional.

Assay [2] addresses T2, Leucine aminopeptidase (Plasmodium falciparum 3D7, UniProt Q8IL11).
T2 sequence (Q8IL11 whole entry): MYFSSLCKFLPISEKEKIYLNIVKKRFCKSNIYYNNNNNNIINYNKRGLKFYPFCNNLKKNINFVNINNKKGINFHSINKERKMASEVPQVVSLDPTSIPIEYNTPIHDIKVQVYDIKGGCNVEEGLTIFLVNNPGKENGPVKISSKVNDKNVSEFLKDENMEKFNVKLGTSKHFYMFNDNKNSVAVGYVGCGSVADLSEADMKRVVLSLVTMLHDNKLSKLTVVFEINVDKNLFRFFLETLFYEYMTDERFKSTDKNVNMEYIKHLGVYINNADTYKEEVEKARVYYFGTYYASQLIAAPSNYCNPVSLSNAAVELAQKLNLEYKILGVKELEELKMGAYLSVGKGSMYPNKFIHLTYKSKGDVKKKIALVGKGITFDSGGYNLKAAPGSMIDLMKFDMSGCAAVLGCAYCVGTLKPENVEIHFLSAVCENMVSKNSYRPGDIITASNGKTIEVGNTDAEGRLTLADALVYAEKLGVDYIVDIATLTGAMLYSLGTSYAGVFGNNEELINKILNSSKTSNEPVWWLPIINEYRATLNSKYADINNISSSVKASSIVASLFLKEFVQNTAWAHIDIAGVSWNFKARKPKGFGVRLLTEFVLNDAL
Put plainly: P. falciparum M17LAP inhibitors, primary screen, biochemical, fluorogenic H-Leu-NHMec substrate, 1536-well (AID 1619). The format is functional.

Assay [3] can be described thus: Artemis endonuclease inhibitor potency, dose response, biochemical, fluorescence intensity (AID 720701).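 Also: Artemis endonuclease enzyme.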 The format is functional.
Assay [4] is described as follows: cytotoxicity in HPDE-C7 cells, cell-based, fluorescence, HTS (AID 430). The format is functional. Conditions: Homo sapiens.
Assay [5] in a line: cytotoxicity in KRAS-transformed pancreatic duct cells, primary screen, cell-based, fluorescence, HTS (AID 431).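 Also: cell line used: HPDE-C7K.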 The format is functional. Conditions: Homo sapiens.
Assay [6] can be described thus: Luminescence Cell-Based Dose Retest to Confirm Inhibitors of Cancer Stem Cells. [Related pubchem assays (depositor defined):AID2717, AID2721]. Format: functional. Conditions: Homo sapiens.
Assay [7] in a line: HEp-2 cell cytotoxicity, dose response, cytotoxicity control for RSV inhibitor project, HTS (AID 2410). The format is functional. Conditions: human respiratory syncytial virus.
The target of assay [8] is Cytochrome P450 2D6 (Homo sapiens, UniProt P10635).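 Also: CYP2D6 member of a cytochrome P450 panel assay.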
Assay [9] concerns the target Cytochrome P450 2C9 (Homo sapiens, UniProt P11712).
In assay [10] the target is T3, Ubiquitin-conjugating enzyme E2 N (Homo sapiens, UniProt P61088).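 Also: Dose-response confirmation in a TR-FRET assay detecting UBC13-driven polyubiquitin chain formation, inhibition measured.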
T3 sequence (P61088 whole entry): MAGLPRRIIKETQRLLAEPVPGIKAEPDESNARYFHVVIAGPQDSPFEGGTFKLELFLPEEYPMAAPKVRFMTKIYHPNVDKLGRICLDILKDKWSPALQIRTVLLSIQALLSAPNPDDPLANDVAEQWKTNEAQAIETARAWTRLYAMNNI
The format is functional.

Assay [11] has as its target T4, DNA repair protein RAD52 homolog (Homo sapiens, UniProt P43351).
T4 sequence (P43351 whole entry): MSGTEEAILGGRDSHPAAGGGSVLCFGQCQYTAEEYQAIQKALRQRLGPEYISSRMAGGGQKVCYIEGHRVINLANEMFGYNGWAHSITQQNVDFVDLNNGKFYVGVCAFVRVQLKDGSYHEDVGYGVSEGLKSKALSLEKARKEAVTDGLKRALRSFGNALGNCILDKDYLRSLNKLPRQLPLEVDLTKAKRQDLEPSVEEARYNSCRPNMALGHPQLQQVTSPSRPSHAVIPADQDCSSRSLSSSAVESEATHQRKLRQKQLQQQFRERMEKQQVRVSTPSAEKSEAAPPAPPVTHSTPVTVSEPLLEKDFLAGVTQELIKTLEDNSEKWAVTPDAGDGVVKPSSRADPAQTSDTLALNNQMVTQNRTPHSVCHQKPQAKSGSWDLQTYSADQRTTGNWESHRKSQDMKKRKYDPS
The format is functional, biochemical.

Assay [12] has as its target T5, Estrogen receptor beta (Homo sapiens, UniProt Q92731).
Assay [13] concerns the target T5, Estrogen receptor beta. As to the kind of experiment: ERβ–SRC-3 coactivator interaction inhibitors, confirmation, orthogonal assay, biochemical, ELISA, streptavidin-HRP readout (AID 1060). (In general: An ELISA detects its analyte on a solid surface through an enzyme-linked reagent.)
Assay [14] has as its target T6, Rac GTPase-activating protein 1 (Homo sapiens, UniProt Q9H0H5).
T6 sequence (Q9H0H5 whole entry): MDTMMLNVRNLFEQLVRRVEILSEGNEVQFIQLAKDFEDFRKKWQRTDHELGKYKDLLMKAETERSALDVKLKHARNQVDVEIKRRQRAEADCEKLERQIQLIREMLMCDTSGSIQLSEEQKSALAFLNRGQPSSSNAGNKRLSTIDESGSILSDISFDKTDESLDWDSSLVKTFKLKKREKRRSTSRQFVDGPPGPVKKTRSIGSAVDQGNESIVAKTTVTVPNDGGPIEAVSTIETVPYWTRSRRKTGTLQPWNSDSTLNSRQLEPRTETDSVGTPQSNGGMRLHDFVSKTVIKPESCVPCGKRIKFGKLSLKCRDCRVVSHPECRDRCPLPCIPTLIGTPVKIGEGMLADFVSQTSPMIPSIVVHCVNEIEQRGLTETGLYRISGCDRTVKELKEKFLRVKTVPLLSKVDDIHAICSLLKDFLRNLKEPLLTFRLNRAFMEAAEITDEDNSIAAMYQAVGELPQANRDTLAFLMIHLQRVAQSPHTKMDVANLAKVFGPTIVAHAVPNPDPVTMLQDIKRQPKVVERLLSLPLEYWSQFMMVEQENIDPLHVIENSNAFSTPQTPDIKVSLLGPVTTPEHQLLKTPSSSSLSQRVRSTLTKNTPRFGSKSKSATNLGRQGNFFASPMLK
Put plainly: MgcRacGAP GTPase-activating activity inhibitors, confirmation, biochemical, ADP Hunter fluorescence, primary and confirmatory (AID 624330). Format: functional.

The nature of assay [15]: Luminescence Cell-Based Dose Response HTS to Identify Inhibitors of 5'UTR Stem-Loop Driven Prion Protein mRNA Translation in H4 Neuroglioblastoma Cells. [Related pubchem assays: 1827 (Project Summary), 1813 (Primary HTS)]. Format: functional.
Assay [16] is described as follows: inhibitors of SNCA 5'UTR-driven reporter translation, confirmation, H4 neuroglioma cells, luminescence (AID 1988). Format: functional, cell-based.
For assay [17], the target named is Paired box protein Pax-8 (Homo sapiens, UniProt Q06710). Put plainly: inhibitors of PAX8-driven TPO luciferase reporter, dose response, RMG-I cells, cherry-pick (AID 687027).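 Also: luciferase reporter driven by Pax8 target thyroperoxidase promoter measured by SteadyGlo luminescence.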 Format: functional, cell-based.
Assay [18] can be described thus: NIH:OVCAR-3 ovarian cancer cell cytotoxicity, dose response, PAX8 inhibitor project, plate reader, dry powder samples (AID 743044). The format is functional, cell-based.
A short description of assay [19]: cytotoxicity in OVCAR8 ovarian cancer cells, dose response, PAX8 project, cell-based, plate reader, dry powder samples (AID 743197). The format is functional. Conditions: OVCAR-8.
For assay [20], the target named is FAD-linked sulfhydryl oxidase ALR (Homo sapiens, UniProt P55789). As to the kind of experiment: inhibitors of human ALR sulfhydryl oxidase, dose response, biochemical, H2O2 detection, luminescence, cherry-pick (AID 493248).
Sequence of FAD-linked sulfhydryl oxidase ALR (P55789 whole entry): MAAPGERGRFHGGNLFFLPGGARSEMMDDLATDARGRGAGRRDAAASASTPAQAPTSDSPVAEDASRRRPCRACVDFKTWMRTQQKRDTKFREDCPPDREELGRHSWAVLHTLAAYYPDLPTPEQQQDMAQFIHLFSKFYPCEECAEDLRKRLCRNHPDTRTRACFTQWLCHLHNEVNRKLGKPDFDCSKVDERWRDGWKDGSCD

T5 sequence (Q92731 whole entry): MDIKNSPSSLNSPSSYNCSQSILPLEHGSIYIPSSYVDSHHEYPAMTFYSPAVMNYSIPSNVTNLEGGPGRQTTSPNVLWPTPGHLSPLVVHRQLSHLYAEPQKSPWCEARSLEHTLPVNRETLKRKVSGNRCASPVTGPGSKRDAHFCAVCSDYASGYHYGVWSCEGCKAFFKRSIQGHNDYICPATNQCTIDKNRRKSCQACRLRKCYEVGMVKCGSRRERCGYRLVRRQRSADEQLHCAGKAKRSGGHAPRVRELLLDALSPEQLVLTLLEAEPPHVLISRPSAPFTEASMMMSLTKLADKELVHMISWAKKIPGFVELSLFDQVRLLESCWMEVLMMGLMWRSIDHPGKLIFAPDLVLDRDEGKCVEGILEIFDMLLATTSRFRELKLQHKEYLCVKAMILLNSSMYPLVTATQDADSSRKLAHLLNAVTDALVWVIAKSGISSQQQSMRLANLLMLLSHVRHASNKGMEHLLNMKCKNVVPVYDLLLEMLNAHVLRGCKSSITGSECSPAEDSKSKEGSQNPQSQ
Sequence of Paired box protein Pax-8 (Q06710 whole entry): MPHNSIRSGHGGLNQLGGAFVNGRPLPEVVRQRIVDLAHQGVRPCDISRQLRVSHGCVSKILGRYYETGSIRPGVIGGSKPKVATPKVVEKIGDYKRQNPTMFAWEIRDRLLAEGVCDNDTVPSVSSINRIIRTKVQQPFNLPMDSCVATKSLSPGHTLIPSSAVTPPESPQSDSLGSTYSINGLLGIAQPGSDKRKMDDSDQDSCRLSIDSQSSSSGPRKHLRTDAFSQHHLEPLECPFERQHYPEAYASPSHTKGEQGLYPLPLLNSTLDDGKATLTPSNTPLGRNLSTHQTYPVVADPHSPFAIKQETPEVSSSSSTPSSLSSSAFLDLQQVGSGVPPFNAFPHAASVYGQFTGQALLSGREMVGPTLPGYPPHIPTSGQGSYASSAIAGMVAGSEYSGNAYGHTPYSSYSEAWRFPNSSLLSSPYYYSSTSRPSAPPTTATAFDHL
Sequence of Cytochrome P450 2C9 (P11712 whole entry): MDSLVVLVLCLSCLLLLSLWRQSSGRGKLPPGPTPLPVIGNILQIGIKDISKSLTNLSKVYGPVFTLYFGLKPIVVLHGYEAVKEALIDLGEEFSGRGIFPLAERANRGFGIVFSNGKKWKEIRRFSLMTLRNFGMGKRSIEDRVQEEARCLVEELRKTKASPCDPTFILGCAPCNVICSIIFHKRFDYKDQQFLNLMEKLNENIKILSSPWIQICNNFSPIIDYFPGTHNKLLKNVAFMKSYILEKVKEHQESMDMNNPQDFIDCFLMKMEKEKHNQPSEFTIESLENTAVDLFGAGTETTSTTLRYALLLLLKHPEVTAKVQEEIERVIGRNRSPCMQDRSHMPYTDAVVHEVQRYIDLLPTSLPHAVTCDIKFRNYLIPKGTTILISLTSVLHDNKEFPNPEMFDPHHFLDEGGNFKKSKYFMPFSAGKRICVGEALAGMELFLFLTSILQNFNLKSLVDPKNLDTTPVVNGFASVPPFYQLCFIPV
Sequence of Cytochrome P450 2D6 (P10635 whole entry): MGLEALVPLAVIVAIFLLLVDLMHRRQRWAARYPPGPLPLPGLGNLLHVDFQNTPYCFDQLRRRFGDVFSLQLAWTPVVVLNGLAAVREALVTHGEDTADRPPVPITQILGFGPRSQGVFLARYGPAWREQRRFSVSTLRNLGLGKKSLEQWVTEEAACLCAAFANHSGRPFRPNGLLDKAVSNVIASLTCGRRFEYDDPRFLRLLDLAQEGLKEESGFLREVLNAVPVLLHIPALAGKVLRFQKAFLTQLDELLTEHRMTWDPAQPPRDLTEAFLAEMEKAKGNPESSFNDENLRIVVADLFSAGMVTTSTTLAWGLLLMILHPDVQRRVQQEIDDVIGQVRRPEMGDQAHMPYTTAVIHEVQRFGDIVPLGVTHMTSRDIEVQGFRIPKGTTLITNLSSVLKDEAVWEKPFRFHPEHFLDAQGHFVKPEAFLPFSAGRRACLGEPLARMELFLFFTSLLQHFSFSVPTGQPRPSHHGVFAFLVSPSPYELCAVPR

With `N#CC(C#N)=C(N)CSc1cccc[n+]1[O-]`, the concentration for half-maximal inhibition (IC50) – broadly, the concentration at which inhibition is half-maximal – in assay [1] is given as > 50 µM (not active).

Turning to `CCOC(=O)c1c(NC(=O)C2C3C=CC(C3)C2C(=O)O)sc2c1CCC(C)C2` (stereo not given), the concentration for half-maximal inhibition (IC50) in [2] was 15.7 µM (active).

In the case of `CC(C)(C)OC(=O)NCCCC[C@H](NC(=O)c1[nH]cnc1C(=O)NCc1ccccc1)C(=O)OC(C)(C)C`, in assay [1], the IC50 is 10.5 µM (not active).

For the compound `CC(C)(C)Nc1nc(NN)nc(NC(C)(C)C)n1`, in assay [3], the half-inhibitory concentration (IC50) was 17.9 µM (active).

`CCCCN(C)c1nc(-c2ccco2)c2c(c1C#N)CC(C)(C)OC2`: the concentration for a half-maximal effect (EC50) in [4] and in [5] was 13.9 µM (active) in each case. In assay [6], the AC50 (in general, the midpoint of the concentration-response curve, whichever way the signal moves) is 7.53 µM (active).

Regarding `Cc1ccc(Cn2c(C)nc3c(c2=O)c2nc4ccccc4nc2n3Cc2ccco2)cc1`, the CC50 (in general, the concentration giving 50% cytotoxicity) in assay [7] is 29 µM (active). For the same compound, in [3], the IC50 was > 20 µM (inactive).

`Cc1ccccc1C(=O)Nc1nncs1`: the IC50 in assay [2] was 25.4 µM (active).

In the case of `O=C(CCC1CCCCC1)Nc1c2c(nn1-c1ccc(F)cc1)CS(=O)(=O)C2`, the EC50 in [4] and in assay [5] was > 20 µM (not active) each time. The AC50 is 11.2 µM (inconclusive) in assay [8] and 12.6 µM (inconclusive) in [9].

With `COc1cccc2sc(N(CCCN(C)C)C(=O)c3sc4ccccc4c3Cl)nc12`, the IC50 in assay [10] is > 20 µM (inactive). Also, the AC50 in assay [11] is 6.13 µM (active).

Regarding `O=C(Cc1cccs1)Nc1ccc(-c2nnn(CC(=O)N3CCOCC3)n2)cc1`, the IC50 in assay [12] is 2.92 µM (active); in [13] it was > 50 µM (not active).

Turning to `CC1(C)Nc2cccc3cccc(c23)N1`, in [14], the half-maximal inhibitory concentration (IC50) was 21.6 µM (active). Also, the AC50 in [11] is 25.6 µM (active).

For the compound `O=[N+]([O-])c1cc(/C=N/n2cnnc2)ccc1N1CCCC1`, the EC50 (as a rule, the midpoint of the concentration-response curve) in assay [15] is 16.9 µM (active); in assay [16], 9.55 µM (active). The concentration for half-maximal inhibition (IC50) in assay [1] is recorded as 36.6 µM (not active).

Regarding `COc1cccc(C#Cc2ccc3c(c2)O[C@@H](CN(C)C(=O)c2ccccn2)[C@H](C)CN([C@@H](C)CO)S3(=O)=O)c1`, the AC50 is 5.17 µM (active) in [17], 41.2 µM (active) in assay [18] and 34.1 µM (active) in [19].

Take `C[C@H]1CCCCO[C@H](CN(C)Cc2ccc(C(F)(F)F)cc2)[C@@H](C)CN([C@@H](C)CO)C(=O)c2cc(NS(=O)(=O)c3cccs3)ccc2O1`: the half-maximal activity concentration (AC50) in [17] was 5.95 µM (active); in [18] it was 37.6 µM (active); in [19], > 70 µM (inactive).

In the case of `CC(C)(C)c1nnc2sc(SC/C(O)=C(\C#N)c3nc4ccccc4[nH]3)nn2c1=O`, the IC50 in assay [12] is 4 µM (active); in assay [13], 40.6 µM (not active).

As for `O=C(N/N=C/c1ccc(O)c(O)c1)C1c2ccccc2Oc2ccccc21`, in assay [20], the concentration at half-maximal activity (AC50) was 0.439 µM (active). The IC50 is 50.6 µM (active) in assay [14] and > 20 µM (inactive) in assay [3].

For `O=C(CC1Sc2ccccc2NC1=O)Nc1cccc(C(=O)O)c1` (stereo not given), the IC50 in [2] is 2.94 µM (active).
